Data from publication PMC6289163 (Tuberculosis (Edinburgh, Scotland), 2018).

Columns and labels:
[1] = system: intracellular M. tuberculosis H37Rv in primary human macrophages; assay type: cell-based, Mycobacterium tuberculosis; conditions: positive control, 0.1 μg/ml, 0.7 μM; 6 days; not shown
BCG expressing luxAB = assay type: cell-based, Mycobacterium bovis bacillus Calmette-Guerin (BCG) Montreal; conditions: 6.3-100 μM

Compound | intracellular killing [1] | mycobacterial inhibitory capacity (BCG expressing luxAB)
NNC(=O)c1ccncc1 [Isoniazid] | same intracellular killing as 50 μM of NZX | –
WKWLKKWIK-OHxTFA [WKWLKKWIKG-OHxTFA] | – | bacterial killing capacity was overall lower than that of WKWLKKWIKG-NH2xHOAc
